# Laboratory results reported in patent US10131652B2, “Pyrimidinyloxy benzene derivatives as herbicides” (E. I. DU PONT DE NEMOURS AND COMPANY, priority 2014, dated 2018).
# Assays:
# Format in all cases: in vivo
# [1] = system: Italian ryegrass (Lolium multiflorum); assay: Test B pre-/postemergence plant response
# Summary of the method: (§1)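 Visual injury scores on a 0–100 scale (100 = complete control) relative to untreated plants, taken about 10 days post-treatment in greenhouse. Treatments were a directed preemergence soil spray and a postemergence spray at one- to two-leaf stage, using surfactant-containing solvent formulation.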
# [2] = system: ragweed (common ragweed, Ambrosia elatior); assay: Test B pre-/postemergence plant response
# Summary of the method: as §1
# kochia (Kochia scoparia) = assay: Test B pre-/postemergence plant response
# Summary of the method: as §1
# [3] = system: galium (catchweed bedstraw, Galium aparine); assay: Test D pre-/postemergence plant response
# Summary of the method: (§2)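 Seeds were planted in a loam and sand blend and sprayed preemergence. In parallel, seedlings grown in peat moss/vermiculite medium were sprayed postemergence at 2 to 18 cm height. Both used a surfactant-containing non-phytotoxic solvent. Greenhouse ratings at 13 to 15 days used a 0–100 control scale.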
# [4] = system: barnyardgrass (Echinochloa crus-galli); assay: Test D pre-/postemergence plant response
# Summary of the method: as §2
# [5] = system: blackgrass (Alopecurus myosuroides); assay: Test D pre-/postemergence plant response
# Summary of the method: as §2
# corn (Zea mays) = assay: Test D pre-/postemergence plant response
# Summary of the method: as §2
# [6] = system: giant foxtail (Setaria faberii); assay: Test D pre-/postemergence plant response
# Summary of the method: as §2
# [7] = system: oilseed rape (Brassica napus); assay: Test D pre-/postemergence plant response
# Summary of the method: as §2
# [8] = system: yellow nutsedge (Cyperus esculentus); assay: Test D pre-/postemergence plant response
# Summary of the method: as §2
# [9] = system: pigweed (Amaranthus retroflexus); assay: Test D pre-/postemergence plant response
# Summary of the method: as §2
# [10] = system: Italian ryegrass (Lolium multiflorum); assay: Test D pre-/postemergence plant response
# Summary of the method: as §2
# [11] = system: ragweed (common ragweed, Ambrosia elatior); assay: Test D pre-/postemergence plant response
# Summary of the method: as §2
# [12] = system: large (Lg) crabgrass (Digitaria sanguinalis); assay: Test D pre-/postemergence plant response
# Summary of the method: as §2
# [13] = 31 g ai/ha, Postemergence, 0 to 100 scale, 0 no effect, 100 complete control
# [14] = 31 g ai/ha, Preemergence, 0 to 100 scale where 0 is no effect and 100 is complete control
# [15] = 125 g ai/ha, postemergence, 0 to 100 scale, 0 no effect, 100 complete control
# [16] = Preemergence, 125 g ai/ha, 0 to 100 scale where 0 is no effect and 100 is complete control
# [17] = Postemergence, 16 g ai/ha, scale 0 to 100 (0 no effect, 100 complete control)
# [18] = Postemergence, 31 g ai/ha, scale 0 to 100 (0 no effect, 100 complete control)
# [19] = Postemergence, 62 g ai/ha, scale 0 to 100, 0 no effect, 100 complete control
# [20] = Postemergence, 125 g ai/ha, scale 0 to 100, 0 no effect, 100 complete control
# [21] = Preemergence, 16 g ai/ha, scale 0 to 100 (0 no effect, 100 complete control)
# [22] = Preemergence, 31 g ai/ha, scale 0 to 100 (0 no effect, 100 complete control)
# [23] = Preemergence, 62 g ai/ha, scale 0 to 100 (0 no effect, 100 complete control)
smiles,measurement,setting,value
Fc1ccc(Oc2ncc(Cl)cn2)c(-c2cc(C(F)F)on2)c1F [Compound 113],"Plant response rating, Ryegrass, Italian",[1]; [13],20
same,"Plant response rating, Ryegrass, Italian",[1]; [14],10
same,"Plant response rating, Ryegrass, Italian",[1]; [15],70
same,"Plant response rating, Ragweed",[2]; [13],50
same,"Plant response rating, Ragweed",[2]; [14],30
same,"Plant response rating, Ragweed",[2]; [15],80
same,"Plant response rating, Kochia",kochia (Kochia scoparia); [13],100
same,"Plant response rating, Kochia",kochia (Kochia scoparia); [14],100
same,"Plant response rating, Kochia",kochia (Kochia scoparia); [15],100
same,"Plant response rating, Kochia",kochia (Kochia scoparia); [16],100
same,Galium plant response rating,[3]; [17],80
same,Galium plant response rating,[3]; [18],80
same,"Plant response rating, Galium",[3]; [19],90
same,"Plant response rating, Galium",[3]; [20],90
same,"Plant response rating (scale 0 to 100), Galium","[3]; Preemergence, 125 g ai/ha",90
same,"Plant response rating, Galium",[3]; [21],90
same,"Plant response rating, Galium",[3]; [22],90
same,"Plant response rating, Galium",[3]; [23],98
same,Barnyardgrass plant response rating,[4]; [17],10
same,Barnyardgrass plant response rating,[4]; [18],15
same,"Plant response rating, Barnyardgrass",[4]; [19],20
same,"Plant response rating, Barnyardgrass",[4]; [20],25
same,"Plant response rating (scale 0 to 100), Barnyardgrass","[4]; Preemergence, 62 g ai/ha",98
same,"Plant response rating (scale 0 to 100), Barnyardgrass","[4]; Preemergence, 125 g ai/ha",100
same,"Plant response rating, Barnyardgrass",[4]; [21],30
same,"Plant response rating, Barnyardgrass",[4]; [22],95
same,Blackgrass plant response rating,[5]; [17],5
same,Blackgrass plant response rating,[5]; [18],15
same,"Plant response rating, Blackgrass",[5]; [19],10
same,"Plant response rating, Blackgrass",[5]; [20],40
same,"Plant response rating (scale 0 to 100), Blackgrass","[5]; Preemergence, 125 g ai/ha",80
same,"Plant response rating, Blackgrass",[5]; [21],10
same,"Plant response rating, Blackgrass",[5]; [22],40
same,"Plant response rating, Blackgrass",[5]; [23],70
same,Corn plant response rating,corn (Zea mays); [17],5
same,Corn plant response rating,corn (Zea mays); [18],10
same,"Plant response rating, Corn",corn (Zea mays); [19],20
same,"Plant response rating, Corn",corn (Zea mays); [20],25
same,"Plant response rating (scale 0 to 100), Corn","corn (Zea mays); Preemergence, 125 g ai/ha",40
same,"Plant response rating, Corn",corn (Zea mays); [21],0
same,"Plant response rating, Corn",corn (Zea mays); [22],0
same,"Plant response rating, Corn",corn (Zea mays); [23],25
same,"Foxtail, Giant plant response rating",[6]; [17],5
same,"Foxtail, Giant plant response rating",[6]; [18],5
same,"Plant response rating, Foxtail, Giant",[6]; [19],10
same,"Plant response rating, Foxtail, Giant",[6]; [20],10
same,"Plant response rating (scale 0 to 100), Foxtail, Giant","[6]; Preemergence, 125 g ai/ha",100
same,"Plant response rating, Foxtail, Giant",[6]; [21],85
same,"Plant response rating, Foxtail, Giant",[6]; [22],100
same,"Plant response rating, Foxtail, Giant",[6]; [23],100
same,Oilseed Rape plant response rating,[7]; [17],80
same,Oilseed Rape plant response rating,[7]; [18],50
same,"Plant response rating, Oilseed Rape",[7]; [19],90
same,"Plant response rating, Oilseed Rape",[7]; [20],90
same,"Plant response rating (scale 0 to 100), Oilseed Rape","[7]; Preemergence, 125 g ai/ha",100
same,"Plant response rating, Oilseed Rape",[7]; [21],98
same,"Plant response rating, Oilseed Rape",[7]; [22],100
same,"Plant response rating, Oilseed Rape",[7]; [23],100
same,"Nutsedge, Yellow plant response rating",[8]; [17],5
same,"Nutsedge, Yellow plant response rating",[8]; [18],5
same,"Plant response rating, Nutsedge, Yellow",[8]; [19],5
same,"Plant response rating, Nutsedge, Yellow",[8]; [20],15
same,"Plant response rating (scale 0 to 100), Nutsedge, Yellow","[8]; Preemergence, 125 g ai/ha",60
same,"Plant response rating, Nutsedge, Yellow",[8]; [21],0
same,"Plant response rating, Nutsedge, Yellow",[8]; [22],10
same,"Plant response rating, Nutsedge, Yellow",[8]; [23],15
same,Pigweed plant response rating,[9]; [17],90
same,Pigweed plant response rating,[9]; [18],90
same,"Plant response rating, Pigweed",[9]; [19],95
same,"Plant response rating, Pigweed",[9]; [20],100
same,"Plant response rating (scale 0 to 100), Pigweed","[9]; Preemergence, 125 g ai/ha",100
same,"Plant response rating, Pigweed",[9]; [21],100
same,"Plant response rating, Pigweed",[9]; [22],100
same,"Plant response rating, Pigweed",[9]; [23],100
same,"Ryegrass, Italian plant response rating",[10]; [17],5
same,"Ryegrass, Italian plant response rating",[10]; [18],5
same,"Plant response rating, Ryegrass, Italian",[10]; [19],5
same,"Plant response rating, Ryegrass, Italian",[10]; [20],5
same,"Plant response rating (scale 0 to 100), Ryegrass, Italian","[10]; Preemergence, 125 g ai/ha",70
same,"Plant response rating, Ryegrass, Italian",[10]; [21],5
same,"Plant response rating, Ryegrass, Italian",[10]; [22],10
same,"Plant response rating, Ryegrass, Italian",[10]; [23],60
same,Ragweed plant response rating,[11]; [17],80
same,Ragweed plant response rating,[11]; [18],60
same,"Plant response rating, Ragweed",[11]; [19],90
same,"Plant response rating, Ragweed",[11]; [20],90
same,"Plant response rating (scale 0 to 100), Ragweed","[11]; Preemergence, 125 g ai/ha",90
same,"Plant response rating, Ragweed",[11]; [21],40
same,"Plant response rating, Ragweed",[11]; [22],55
same,"Plant response rating, Ragweed",[11]; [23],85
same,"Crabgrass, Large plant response rating",[12]; [17],10
same,"Crabgrass, Large plant response rating",[12]; [18],20
same,"Plant response rating, Crabgrass, Large",[12]; [19],25
same,"Plant response rating, Crabgrass, Large",[12]; [20],25
same,"Plant response rating (scale 0 to 100), Crabgrass, Large","[12]; Preemergence, 125 g ai/ha",100
same,"Plant response rating, Crabgrass, Large",[12]; [21],98
same,"Plant response rating, Crabgrass, Large",[12]; [22],100
same,"Plant response rating, Crabgrass, Large",[12]; [23],100
FC(Cl)c1cc(-c2ccccc2Oc2ncc(Cl)cn2)no1 (centres unmarked) [Compound 116],"Plant response rating, Ryegrass, Italian",[1]; [13],0
same,"Plant response rating, Ryegrass, Italian",[1]; [14],0
same,"Plant response rating, Ryegrass, Italian",[1]; [15],30
same,"Plant response rating, Ragweed",[2]; [13],20
same,"Plant response rating, Ragweed",[2]; [14],0
same,"Plant response rating, Ragweed",[2]; [15],40
same,"Plant response rating, Kochia",kochia (Kochia scoparia); [13],90
same,"Plant response rating, Kochia",kochia (Kochia scoparia); [14],60
same,"Plant response rating, Kochia",kochia (Kochia scoparia); [15],90
same,"Plant response rating, Kochia",kochia (Kochia scoparia); [16],60
same,Galium plant response rating,[3]; [17],60
same,Galium plant response rating,[3]; [18],60
same,"Plant response rating, Galium",[3]; [19],70
same,"Plant response rating, Galium",[3]; [20],90
same,Barnyardgrass plant response rating,[4]; [17],5
same,Barnyardgrass plant response rating,[4]; [18],5
same,"Plant response rating, Barnyardgrass",[4]; [19],20
same,"Plant response rating, Barnyardgrass",[4]; [20],30
same,Blackgrass plant response rating,[5]; [17],0
same,Blackgrass plant response rating,[5]; [18],5
same,"Plant response rating, Blackgrass",[5]; [19],5
same,"Plant response rating, Blackgrass",[5]; [20],35
same,Corn plant response rating,corn (Zea mays); [17],5
same,Corn plant response rating,corn (Zea mays); [18],10
same,"Plant response rating, Corn",corn (Zea mays); [19],5
same,"Plant response rating, Corn",corn (Zea mays); [20],10
same,"Foxtail, Giant plant response rating",[6]; [17],5
same,"Foxtail, Giant plant response rating",[6]; [18],5
same,"Plant response rating, Foxtail, Giant",[6]; [19],10
same,"Plant response rating, Foxtail, Giant",[6]; [20],60
same,Oilseed Rape plant response rating,[7]; [17],50
same,Oilseed Rape plant response rating,[7]; [18],10
same,"Plant response rating, Oilseed Rape",[7]; [19],55
same,"Plant response rating, Oilseed Rape",[7]; [20],70
same,"Nutsedge, Yellow plant response rating",[8]; [17],5
same,"Nutsedge, Yellow plant response rating",[8]; [18],5
same,"Plant response rating, Nutsedge, Yellow",[8]; [19],10
same,"Plant response rating, Nutsedge, Yellow",[8]; [20],25
same,Pigweed plant response rating,[9]; [17],75
same,Pigweed plant response rating,[9]; [18],75
same,"Plant response rating, Pigweed",[9]; [19],90
same,"Plant response rating, Pigweed",[9]; [20],90
same,"Ryegrass, Italian plant response rating",[10]; [17],0
same,"Ryegrass, Italian plant response rating",[10]; [18],0
same,"Plant response rating, Ryegrass, Italian",[10]; [19],5
same,"Plant response rating, Ryegrass, Italian",[10]; [20],10
same,Ragweed plant response rating,[11]; [17],40
same,Ragweed plant response rating,[11]; [18],35
same,"Plant response rating, Ragweed",[11]; [19],60
same,"Plant response rating, Ragweed",[11]; [20],75
same,"Crabgrass, Large plant response rating",[12]; [17],5
same,"Crabgrass, Large plant response rating",[12]; [18],5
same,"Plant response rating, Crabgrass, Large",[12]; [19],25
same,"Plant response rating, Crabgrass, Large",[12]; [20],40
